{
  "source": "patent US6368788B1",
  "about": "(priority 1987, dated 2002)",
  "key": {"[1]": {"assay": "Acute osteomyelitis / soft tissue inflammation in children (Protocol C)", "format": "in vivo, human", "description": "Seventeen hospitalized children (10 boys and 7 girls) were entered into this protocol: 6 with acute inflammatory diseases of soft tissues (abscesses, phlegmons), 4 with odotogenous osteomyelitis of the jaw, and 7 with hematogenous osteomyelitis of the flat and tubular bones. In 11 children, the course of the illness was acute and in 6 it was subacute and chronic.\nL-Glu-L-Trp was administered in combination therapy with conventional antibiotic therapies. Where necessary, surgery was performed to drain infectious foci in the jaw or soft tissues, affected teeth were extracted, and for osteomyelitis a port was drilled for infusion of antibiotics. Physical examination and laboratory testing was conducted before administering L-Glu-L-Trp and 2-3 days after the treatment.\nLaboratory tests were conducted to determine clinical chemistry and protein values prior to and after therapy (i.e., including the concentrations of bilirubin, creatinine, albumin, cholesterol, urea nitrogen, glucose, protein, chloride, potassium, phosphorus, calcium, sodium, alkaline phosphatase, α1-orosomucoid, α2-macroglobulin, prealbumin, ceruloplasmin, and transferrin). While urea nitrogen and cholesterol decreased slightly after therapy, these and all other changes observed after L-Glu-L-Trp treatment were not statistically significant."}, "[2]": {"assay": "Occupational radiation exposure to 100-200 R", "design": "species or system human", "settings": "in vivo", "from_the_text": "A total of 263 patients and 18 control patients sustained exposure to 100-200 Roentgens of occupational radiation over a period of several weeks."}, "[3]": {"assay": "Corneal diseases", "settings": "in vivo"}, "[4]": {"test_system": "cAMP and cGMP", "assay": "Splenic lymphocyte cAMP and cGMP, normal, sensitized and anaphylactic animals", "format": "in vivo, guinea pigs", "settings": "for cAMP / cAMP/cGMP / cGMP: splenic lymphocytes, 10 μg/kg", "description": "Normal guinea pigs (10/group) were treated with 10 μg/kg L-Glu-L-Trp daily on each of five consecutive days and then spleens were removed, lymphocytes isolated, and cyclic AMP and GMP levels determined. To evaluate the effects of L-Glu-L-Trp on immune cells in the face of an ongoing anaphylactic response, splenic lymphocytes were isolated from guinea pigs sensitized for anaphylaxis, or following induction of anaphylactic shock."}, "[5]": {"test_system": "Rauscher MuLV", "assay": "Anti-viral response to Rauscher MuLV", "format": "in vivo, mice", "settings": "50 μg/kg", "from_the_text": "Innate mechanisms of anti-viral immunity are important to survival of the host. The Rauscher murine leukemia virus (MuLV) is an example of a highly virulent animal retrovirus infection, first isolated and characterized by Dr. Rauscher from BALB/c mouse tissues in 1962. […] The virus employed in present GLP/blinded study was a murine leukemia complex known to induce progressive erythroleukemia in mice (i.e., Rauscher MuLV and replication-defective Rauscher spleen focus-forming virus). Disease manifested within about 6 days with death by about 50 days. Measurements of splenomegaly, blood reverse transcriptase, virus plaque assays (i.e., XC-plaque assay for viremia using SC-1 host cells) and serum anti-viral antibody titers were used to assess infection. Spleens achieved about 2.0 grams in weight within 21 days of infection, as compared with a normal spleen weights in an uninfected animals of about 0.1 gram.\nMice were inoculated with Rauscher MuLV complex (0.1 ml/7.8×10^4 PFU/mL) on day 0 and sacrificed on day 21. Test groups were comprised of 10 mice and control groups 6 mice. Control articles included saline and AZT (in drinking water at about 1.25 mg/mouse/day≈63 mg/kg/day/mouse). […] A non-infected group of mice was also sacrificed on day 21 to provide normal control values.\nIn EXAMPLE 38, SC-1 cells were originally derived from murine embryos, and XC cells (a rat tumor cell line induced by Rous Sarcoma Virus) were obtained from the ATCC in Rockville, Md."}, "[6]": {"test_system": "Herpes Zoster", "settings": "on the average"}, "[7]": {"settings": "children, After L-Glu-L-Trp Therapy (2-3 days after treatment)"}, "[8]": {"settings": "After Combination L-Glu-L-Trp Therapy"}, "[9]": {"settings": "After L-Glu-L-Trp Combination Therapy"}, "[10]": {"settings": "sensitized + anaphylaxis (Group 5)"}, "[11]": {"settings": "sensitized guinea pigs (Group 3)"}},
  "note": "Where two headings read alike, the source gives them in different places.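 Wherever ATIII is given: hospitalized children with severe pneumonia, thrombohemorrhagic syndrome plus secondary immune deficiency, lab values taken before and after treatment versus healthy normal controls, comparison group given antibiotic therapy alone.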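 Wherever Clotting time (citrated whole blood-recalcified) is given: hospitalized children with severe pneumonia, thrombohemorrhagic syndrome plus secondary immune deficiency, lab values taken before and after treatment versus healthy normal controls, comparison group given antibiotic therapy alone.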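 Wherever FDP is given: hospitalized children with severe pneumonia, thrombohemorrhagic syndrome plus secondary immune deficiency, lab values taken before and after treatment versus healthy normal controls, comparison group given antibiotic therapy alone.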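 Wherever Fibrinogen Concentration is given: hospitalized children with severe pneumonia, thrombohemorrhagic syndrome plus secondary immune deficiency, lab values taken before and after treatment versus healthy normal controls, comparison group given antibiotic therapy alone.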",
  "data": [
    {"substance": "L-Glu-L-Trp", "values": [
      {"measurement": "B-Lymphocytes: % of PBL", "setting": "[1]; [7]", "value": "15.1 ± 3.32 % of PBL"},
      {"measurement": "B-Lymphocytes: No.", "setting": "[1]; [7]", "value": "0.41 ± 0.11 10^9/L"},
      {"measurement": "C3", "setting": "[1]; [7]", "value": "0.72 ± 0.05", "unit": "g/L"},
      {"measurement": "IgA", "setting": "[1]; [7]", "value": "1.68 ± 0.18", "unit": "g/L"},
      {"measurement": "IgG", "setting": "[1]; [7]", "value": "14.4 ± 1.31", "unit": "g/L"},
      {"measurement": "IgM", "setting": "[1]; [7]", "value": "1.64 ± 0.26", "unit": "g/L"},
      {"measurement": "LMIR: % Con A", "setting": "[1]; [7]", "value": "49.7 ± 13.7", "unit": "%"},
      {"measurement": "LMIR: % PHA", "setting": "[1]; [7]", "value": "47.7 ± 11.2", "unit": "%"},
      {"measurement": "Leukocytes", "setting": "[1]; [7]", "value": "7.0 ± 0.4^† 10^9/L"},
      {"measurement": "Lymphocytes: % of PBL", "setting": "[1]; [7]", "value": "43 ± 3.61 % of PBL"},
      {"measurement": "Lymphocytes: No.", "setting": "[1]; [7]", "value": "3.15 ± 0.41 10^9/L"},
      {"measurement": "Neutrophils", "setting": "[1]; [7]", "value": "3.4 ± 0.33 ×10^9/L"},
      {"measurement": "Neutrophils: % PBL", "setting": "[1]; [7]", "value": "50 ± 4.8", "unit": "% PBL"},
      {"measurement": "Null-Lymphocytes: % of PBL", "setting": "[1]; [7]", "value": "18.7 ± 4.68 % of PBL"},
      {"measurement": "Null-Lymphocytes: No.", "setting": "[1]; [7]", "value": "0.42 ± 0.11^† 10^9/L"},
      {"measurement": "T-Lymphocytes: % of Lym", "setting": "[1]; [7]", "value": "66.2 ± 2.57 % of Lym"},
      {"measurement": "T-Lymphocytes: No.", "setting": "[1]; [7]", "value": "1.7 ± 0.3 10^9/L"},
      {"measurement": "T-helper (Etr-RFC): % of Lym", "setting": "[1]; [7]", "value": "57.3 ± 6.34 % of Lym"},
      {"measurement": "T-helper (Etr-RFC): No.", "setting": "[1]; [7]", "value": "1.4 ± 0.24 10^9/L"},
      {"measurement": "T-suppressor: % of Lym", "setting": "[1]; [7]", "value": "8.8 ± 5.4 % of Lym"},
      {"measurement": "T-suppressor: No.", "setting": "[1]; [7]", "value": "0.3 ± 0.2 10^9/L"},
      {"measurement": "Wounds cleaned and granulated earlier than usual", "setting": "[1]; in vivo", "value": "2 to 3", "unit": "days"},
      {"measurement": "Outcome", "setting": "[2]", "value": "restoration of normal, or near normal, peripheral blood immune indices in all patients"},
      {"measurement": "Clinical outcome", "setting": "[3]", "value": "stimulates regeneration of corneal epithelium and restoration of visual acuity"},
      {"measurement": "B-Lymphocytes", "setting": "[8]", "value": "0.84 ± 0.06 ×10^9/L"},
      {"measurement": "B-Lymphocytes % Normal Value", "setting": "[8]", "value": "(175%)"},
      {"measurement": "IgA", "setting": "[8]", "value": "67 ± 4.8"},
      {"measurement": "IgA % Normal Value", "setting": "[8]", "value": "(163%)"},
      {"measurement": "IgG", "setting": "[8]", "value": "138 ± 5.6"},
      {"measurement": "IgG % Normal Value", "setting": "[8]", "value": "(97%)"},
      {"measurement": "IgM", "setting": "[8]", "value": "153 ± 6.9"},
      {"measurement": "IgM % Normal Value", "setting": "[8]", "value": "(89%)"},
      {"measurement": "Leukocytes", "setting": "[8]", "value": "11.0 ± 0.01 ×10^9/L"},
      {"measurement": "Leukocytes % Normal Value", "setting": "[8]", "value": "(98%)"},
      {"measurement": "Lymphocytes", "setting": "[8]", "value": "0.36 ± 0.01 ×10^9/L"},
      {"measurement": "Lymphocytes % Normal Value", "setting": "[8]", "value": "(116%)"},
      {"measurement": "T-Lymphocytes", "setting": "[8]", "value": "1.1 ± 0.01 ×10^9/L"},
      {"measurement": "T-Lymphocytes % Normal Value", "setting": "[8]", "value": "(167%)"},
      {"measurement": "ATIII", "setting": "[9]", "value": "85 ± 2.1 % of normal"},
      {"measurement": "Clotting time (citrated whole blood-recalcified)", "setting": "[9]", "value": "129 ± 2.3^"},
      {"measurement": "FDP", "setting": "[9]", "value": "96 ± 6.7", "unit": "µg/mL"},
      {"measurement": "Fibrinogen Concentration", "setting": "[9]", "value": "4.2 ± 0.4", "unit": "g/L"},
      {"measurement": "Fibrinolytic Activity", "setting": "[9]", "value": "186 ± 11.5", "unit": "min"},
      {"measurement": "Hagemann factor dependent fibrinolysis", "setting": "[9]", "value": "72 ± 6.8"},
      {"measurement": "Kaolin-Cephalin clotting time", "setting": "[9]", "value": "58 ± 1.2"},
      {"measurement": "Prothrombin time", "setting": "[9]", "value": "22 ± 0.1"},
      {"measurement": "Thrombotest", "setting": "[9]", "value": "33 ± 1.2"},
      {"measurement": "Whole blood clotting time", "setting": "[9]", "value": "465 ± 16.2", "unit": "s"},
      {"measurement": "cAMP and cGMP levels", "setting": "[4]; sensitized and anaphylactic animals", "value": "significantly elevated the levels of cAMP and cGMP"},
      {"measurement": "cAMP", "setting": "[4]; [10]", "value": "210 ± 30", "unit": "pmole/10^7 cells"},
      {"measurement": "cAMP/cGMP", "setting": "[4]; [10]", "value": "26 ± 3"},
      {"measurement": "cGMP", "setting": "[4]; [10]", "value": "7.9 ± 0.5", "unit": "pmole/10^7 cells"},
      {"measurement": "cAMP", "setting": "[4]; [11]", "value": "250 ± 30", "unit": "pmole/10^7 cells"},
      {"measurement": "cAMP/cGMP", "setting": "[4]; [11]", "value": "22 ± 2"},
      {"measurement": "cGMP", "setting": "[4]; [11]", "value": "11.2 ± 0.9", "unit": "pmole/10^7 cells"},
      {"measurement": "Viremia", "setting": "[5]", "value": "significantly decreased viremia"},
      {"measurement": "Healing earlier than in the control group", "setting": "[6]", "value": 40, "unit": "%"}
    ]}
  ]
}
